Values joined by “and” are separate entries in the source; they are usually repeats but may differ in a detail not shown here. Equal values may be shown once.
Legend:
[1] = test system: BANK-mediated GP bladder contraction; assay: BANK-induced bladder contraction in anesthetized guinea pigs; type: in vivo, guinea pig; details: for Inhibition of BANK-mediated GP bladder contraction (% Inhibition mediated by 52 nmol/kg administered orally): anesthetized female guinea pigs, 52 nmol/kg by gavage 1 hr before BANK, mean ± S.E.M.
Protocol: BANK-Induced Bladder Contraction in Anesthetized Guinea Pigs:
Female guinea pigs (300-450 g) were anesthetized by intramuscular administration of ketamine/xylazine mixture (3/10 mg/kg, respectively). The jugular vein was catheterized and the distal end of the catheter connected to a syringe for administration of compound where appropriate. Subsequently, the bladder was exposed through a midline abdominal incision, the ureters tied with 4-0 silk suture approximately 2 cm above the bladder, and cut above the ligature to allow drainage from the kidneys. Cannula were passed through the proximal urethra and bladder sphincter into the bladder lumen. The bladder was manually emptied, infused with 0.3 mL saline, and the catheter attached to a Gould p23 ID pressure transducer for recording changes in bladder pressure. An equilibration period of approximately 15 min was allowed for stabilization of the animals following surgical preparation. Thiorphan (10 mg/kg iv) was administered 15 minutes before agonist exposure to inhibit neutral endopeptidase 3.4.24.11.
To establish the oral effect of test compounds, animals were administered the test compounds (52 nmol/kg, 5% PEG 400-saline vehicle) by gavage 1 hr before administration of BANK. Changes in bladder contraction occurring in the presence and absence of test compound were recorded as an increase in intravesical bladder pressure on a Grass 7D Polygraph and expressed as the precentage change in response. Duration of action studies were performed following oral administration of test compounds (52 nmol/kg, 5% PEG 400-saline vehicle) at different times prior to administration of BANK. Responses were calculated as the percentage difference between the response to BANK in the presence of test compound compared with sham-treated controls. For all studies, each animal was administered a single dose of test compound. Experimental results were expressed as the mean plus or minus the Standard Error of the Mean (±S.E.M) percentage change from basal level.
The ability of compounds disclosed herein to inhibit bladder contractions induced with BANK is shown by the results disclosed in Table 1.

human NK1 receptors = molecular target: T1, human NK1 receptors (Homo sapiens, UniProt P25103); assay: In vitro receptor binding assay, [3H]SP in MEL cell membranes expressing cloned human NK1 receptors; details: for Ki: inhibition of [3H]SP binding to cloned hNK1 receptors in MEL cell membranes, read-out: hNK1 (Ki expressed as -Log Molar) (converted)
T1 construct: expressed in transfected cells; host or cells: MEL cells (membranes)
Protocol: (§1) Preparation of Membranes from MEL Cells Transfected with Cloned Human NK1 or NK2 Receptors:
(§2) The cloning of the human lung NK1 and NK2 receptors was achieved as described by Hopkins, et al., Biochem. Biophys. Res. Commun. 180: 1110-1117 (1991), and Graham, et al., Biochem. Biophys. Res. Commun. 177: 8-16 (199.1). Heterologous expression and scale-up growth of MEL cells transfected with human tachykinin receptors was performed as described for NK2 receptors by Aharony, et al., Mol. Pharmacol. 45: 9-19, 1994.
(§3) Membranes from recombinant MEL cells expressing NK1 or NK2 receptors were prepared as described by Hopkins, et al., (1991). Briefly, cells were homogenized at 4° C. (Brinkman PT-20 Polytron, setting 3, with one 15 sec burst on ice), in a buffer consisting of 50 mM Tris-HCl (pH7.4), 5 mM KCl, 120 mM NaCl, 10 mM EDTA and containing several protease inhibitors (1 mM phenylmethylsulfonylfluoride; 0.1 mg/ml soybean trypsin inhibitor, and 1 mM iodoacetamide). The homogenate was centrifuged at 1200×g for 45 min at 4° C. to remove cell debris. The supernatant was centrifuged at 48,000×g for 45 min at 4° C. The pellet was resuspended with a glass-Teflon motorized homogenizer in 30 volumes of ice-cold 50 mM Tris-HCl (pH 7.4) buffer.
(§4) Ligand binding assays with [^3H]NKA in MEL cells expressing cloned NK2 receptors or (^3H]SP in MEL cells expressing cloned NK1 receptors, were conducted generally as described by Aharony, et al., Mol. Pharmacol. 45: 9-19, 1994, Aharony, et al., Neuropeptides 23: 121-130 (1992) and Aharony, et al., J. Pharmacol. Exp. Ther. 259: 146-155 (1991). In brief, incubations were carried out in assay buffer containing membranes, test compounds, and [^3H] ligand (1.0-1.5 nM). In competition experiments, mixtures (0.315 mL) containing various concentrations of competing agents (agonists, antagonists, or vehicle), were incubated at 25° C. for 30 min., with or without 1 μM unlabeled homogenous ligand (NKA or SP), to define non-specific binding. Reactions were initiated by adding membranes (0.1-0.15 mg protein/final concentration) and were conducted in duplicate. Saturation and kinetic experiments were conducted in triplicate. Separation of receptor-bound and free ligand was accomplished by dilution with 1 mL of wash buffer (20 mM Tris-HCl, pH 7.5) followed immediately by vacuum filtration with a total volume of 10 mL of wash buffer (utilizing a Brandel Cell Harvester MB-48R with Whatman GF/B filters presoaked in 0.1% polyethylenimine).
(§5) The ability of compounds disclosed herein to inhibit the binding of [^3H] ligand is shown by the results disclosed in Table 1.

human NK2 receptors = molecular target: T2, human NK2 receptors (Homo sapiens, UniProt P21452); assay: In vitro receptor binding assay, [3H]NKA in MEL cell membranes expressing cloned human NK2 receptors; details: inhibition of [3H]NKA binding to cloned hNK2 receptors in MEL cell membranes; read-out: hNK2 (Ki expressed as -Log Molar) (converted)
T2 construct: expressed in transfected cells; host or cells: MEL cells (membranes)
T2 sequence (P21452 1-398): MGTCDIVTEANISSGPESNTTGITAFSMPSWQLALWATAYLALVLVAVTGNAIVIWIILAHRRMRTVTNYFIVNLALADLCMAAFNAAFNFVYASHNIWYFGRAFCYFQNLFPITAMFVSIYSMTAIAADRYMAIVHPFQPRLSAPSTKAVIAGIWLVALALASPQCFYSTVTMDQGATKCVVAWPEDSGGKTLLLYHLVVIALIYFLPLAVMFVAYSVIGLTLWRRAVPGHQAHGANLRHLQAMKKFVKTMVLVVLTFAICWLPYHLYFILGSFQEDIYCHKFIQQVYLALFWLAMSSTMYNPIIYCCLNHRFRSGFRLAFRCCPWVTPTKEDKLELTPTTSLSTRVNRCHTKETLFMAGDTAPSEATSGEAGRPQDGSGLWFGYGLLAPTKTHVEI
Protocol: as §1, §2, §3, §4, §5

T1 sequence (P25103 whole entry): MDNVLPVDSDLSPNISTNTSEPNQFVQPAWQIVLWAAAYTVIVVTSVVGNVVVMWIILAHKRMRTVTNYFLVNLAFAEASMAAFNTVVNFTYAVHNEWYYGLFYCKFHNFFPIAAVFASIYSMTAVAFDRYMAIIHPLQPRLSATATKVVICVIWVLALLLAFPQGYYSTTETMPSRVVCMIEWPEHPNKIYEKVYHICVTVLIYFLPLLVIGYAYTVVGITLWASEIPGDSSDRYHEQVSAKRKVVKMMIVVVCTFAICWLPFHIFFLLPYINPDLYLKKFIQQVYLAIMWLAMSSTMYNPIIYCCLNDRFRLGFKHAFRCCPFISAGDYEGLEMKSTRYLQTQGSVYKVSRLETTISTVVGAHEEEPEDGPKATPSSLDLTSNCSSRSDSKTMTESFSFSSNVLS

| inhibition at 10 µM (human NK1 receptors; at 10 μM, [3H]SP binding, cloned hNK1 receptors) [%] | Ki (human NK2 receptors) [nM] | Ki (human NK1 receptors) [nM] | SMILES | Inhibition of BANK-mediated GP bladder contraction (% Inhibition mediated by 52 nmol/kg administered orally) [1] | Effect on bladder contraction induced by BANK (in words) ([1]; guinea pig, BANK-induced bladder contraction) |
| --- | --- | --- | --- | --- | --- |
| 90 | 0.55 | – | CN(C[C@@H](CCN1CCC(N2CC(C)(C)CNC2=O)CC1)c1ccc(Cl)c(Cl)c1)C(=O)c1ccccc1 [Example 1, (S)-N-[2-(3,4-Dichlorophenyl)-4-[4-(2-oxo-5,5-dimethyl-perhydropyrimidin-1-yl)piperidino]butyl]-N-methylbenzamide] | 27 ± 13% | – |
| – | 0.245 | 112 | CCN1CCCN(C2CCN(CC[C@H](CN(C)C(=O)c3ccccc3)c3ccc(Cl)c(Cl)c3)CC2)C1=O.O=C(O)CC(O)(CC(=O)O)C(=O)O [Example 2, (S)-N-[2-(3,4-Dichlorophenyl)-4-[4-(3-ethyl-2-oxoperhydro-pyrimidin-1-yl)-piperidino]butyl]-N-methylbenzamide citrate] | 26 ± 16% | – |
| – | 1.41 | 66.1 | CCN(C[C@@H](CCN1CCC(N2CCCNC2=O)CC1)c1ccc(Cl)c(Cl)c1)C(=O)c1ccccc1 [Example 3, (S)-N-{2-(3,4-Dichloro-phenyl)-4-[4-(2-oxo-tetrahydro-pyrimidin-1-yl)-piperidin-1-yl]-butyl}-N-ethyl-benzamide free base] | 64% and 64 ± 6% | – |
| – | 1.74 | 61.7 | CN(C[C@@H](CCN1CCC(N2CCCNC2=O)CC1)c1ccc(Cl)c(Cl)c1)C(=O)c1ccc(F)cc1.O=C(O)CC(O)(CC(=O)O)C(=O)O [Example 4, (S)-N-[2-(3,4-Dichlorophenyl)-4-[4-(2-oxoperhydro-pyrimidin-1-yl)piperidino]butyl]-4-fluoro-N-methylbenzamide citrate] | 55 ± 11% | – |
| – | 1.38 | 251 | CN(C[C@@H](CCN1CCC(N2CCCNC2=S)CC1)c1ccc(Cl)c(Cl)c1)C(=O)c1ccccc1.Cl.Cl [Example 5, (S)-N-[2-(3,4-Dichlorophenyl)-4-[4-(2-thioxoperhydro-pyrimidin-1-yl)-piperidino]butyl]-N-methylbenzamide dihydrochloride] | −9 ± 39% | increase the bladder contraction induced by BANK |

Source: patent US20040248914A1, “Method for the treatment of overactive bladder” (priority 2001, published 2004)
